Test results: US20250154193A1, “STEROID COMPOUND, AND PREPARATION METHOD THEREFOR AND APPLICATION THEREOF” (CHOLESGEN (SHANGHAI) CO., LTD., priority 2022, published 2025)

Test system: Ldlr−/− mice
Assay: AMLN diet-induced fatty liver model: liver tissue section analysis
Type: in vivo
Conditions: 30 mg/kg/day, 8 weeks
Procedure: Hematoxylin-eosin staining: The extracted liver was fixed in 4% paraformaldehyde at 4° C., embedded in paraffin, sectioned using a paraffin microtome (Leica RM2235) with a section thickness of […], dewaxed, rehydrated, and stained with Hematoxylin-eosin staining kits ([…]. 6,765,001, 6,766,010, Thermo Scientific). The images were captured with an Olympus VS 120 glass microscope, and quantified using ImageJ software. Oil Red 0 staining: The liver was embedded in OCT embedding medium (Leica), sectioned to a thickness of 7 μm using a cryostat microtome (Leica CM1950), stained with Oil Red 0 (00625, Sigma). The images were captured with an Olympus VS 120 glass microscope, and quantified using ImageJ software. Sirius Red collagen staining: Liver paraffin sections were dewaxed, rehydrated, and stained with Sirius Red staining kit (ab150681, Abcam) according to the manufacturer's instructions. Immunofluorescence staining: The liver was embedded in OCT embedding medium (Leica) and sectioned to a thickness of 7 μm using a cryostat microtome (Leica CM1950). Cryostat sections were stained with anti-F4/80 rat monoclonal antibody (14-4801-85, Invitrogen, 1:100) and Alexa Fluor 488-conjugated goat anti-rat IgG secondary antibody (A-11006, Invitrogen, 1:500), and the nuclei were specifically stained with DAPI (Sigma) 30. After staining and sealing, the images were captured using a spinning disk confocal microscope (Nikon CSU-W1 SoRa), and quantified using ImageJ software. Polarized light imaging of cholesterol crystals: Cryostat sections were stained with F4/80 and DAPI. The images were captured using a spinning disk confocal microscope (Nikon CSU-W1 SoRa) equipped with a polarized light filter, and quantified using ImageJ software. Male C57BL/6J mice and male Ldlr^−/− mice (TOO1464, Jiangsu GemPharmatech Co., Ltd.) at 8 weeks of age were purchased, grouped, fed with different diets, and treated with different drugs. The mice were randomly divided into 4 groups with 8 to 9 mice in each group: One group consisted of C57BL/6J wild-type mice, which was the chow diet (CD) vehicle control group. The other three groups consisted of Ldlr^−/− knockout mice, including chow diet (CD) vehicle control group, AMLN diet (containing […], 22% fructose, and 2% cholesterol) vehicle control group, and AMLN diet combined with 25-hydroxylanosterol administration group (25-hydroxylano sterol was administered at a concentration of 30 mg/kg/day). The mice in four groups were intragastrically administered once a day, during which the changes in food intake and body weight of the mice in different treatment groups were counted. After 8 weeks, blood and liver samples were collected from the mice to analyze blood lipids, liver lipids, and liver damage phenotypes. Furthermore, we performed various staining or immunohistochemical procedures on liver tissue sections from the mice in each group to analyze the phenotypic changes in hepatic lipid accumulation and fatty liver. […] FIGS. 14 to 18 show the results of Oil Red O staining and quantification of liver sections of mice: 25-hydroxylanosterol reduced lipid droplets in the liver. FIGS. 19 to 23 show the results of Sirius Red staining and quantification of liver sections of mice: 25-hydroxylanosterol reduced fibrosis in the liver. FIGS. 24 to 29 show the results of F4/80 immunostaining and quantification of liver sections of mice as well as the results of imaging and quantification of polarized light imaging indicating cholesterol crystals: 25-hydroxylanosterol reduced the aggregation of Kupffer cells and formation of cholesterol crystals in the liver. In FIGS. 9 to 29, quantitative analysis was performed using ImageJ software, and data are represented as mean±standard deviation. P values were calculated using one-way ANOVA; * indicates P<0.05; ** indicates P<0.01; *** indicates P<0.001.

C[C@H](CCCC(C)(C)O)[C@H]1CC[C@@]2(C)C3=C(CC[C@]12C)[C@@]1(C)CC[C@H](O)C(C)(C)[C@@H]1CC3 [compound 68, (1R,3aR,5aR,7S,9aS,11aR)-1-[(2R)-6-hydroxy-6-methylheptan-2-yl]-3a,6,6,9a,11a-pentamethyl-2,3,3a,4,5,5a,6,7,8,9,9a,10,11,11a-tetradecahydro-1H-cyclopenta[1,2-a]phenanthren-7-ol]
significantly reduced: crown-like structure formed by Kupffer cells (F4/80 immunostaining) | fibrotic phenotype of collagen fiber formation in liver sections (Sirius Red) | number of cholesterol crystals in liver sections (polarized light imaging) | accumulation of lipid droplets of neutral lipids in the liver (Oil Red O staining) (vs control group) | macrovesicular lipid droplets and vesicular degenerated hepatocytes in the liver (HE staining) (vs control group) | NAFLD activity scores (HE staining of liver sections)
